{"source": "patent US11419869B2", "about": "“Dosage forms and regimens for amino acid compounds” (Pliant Therapeutics, Inc., priority 2019, dated 2022)", "data": [{"target": "recombinant human integrin αvβ6 (Homo sapiens (Human), UniProt P06756+P18564)", "sequence (P06756 31-992)": "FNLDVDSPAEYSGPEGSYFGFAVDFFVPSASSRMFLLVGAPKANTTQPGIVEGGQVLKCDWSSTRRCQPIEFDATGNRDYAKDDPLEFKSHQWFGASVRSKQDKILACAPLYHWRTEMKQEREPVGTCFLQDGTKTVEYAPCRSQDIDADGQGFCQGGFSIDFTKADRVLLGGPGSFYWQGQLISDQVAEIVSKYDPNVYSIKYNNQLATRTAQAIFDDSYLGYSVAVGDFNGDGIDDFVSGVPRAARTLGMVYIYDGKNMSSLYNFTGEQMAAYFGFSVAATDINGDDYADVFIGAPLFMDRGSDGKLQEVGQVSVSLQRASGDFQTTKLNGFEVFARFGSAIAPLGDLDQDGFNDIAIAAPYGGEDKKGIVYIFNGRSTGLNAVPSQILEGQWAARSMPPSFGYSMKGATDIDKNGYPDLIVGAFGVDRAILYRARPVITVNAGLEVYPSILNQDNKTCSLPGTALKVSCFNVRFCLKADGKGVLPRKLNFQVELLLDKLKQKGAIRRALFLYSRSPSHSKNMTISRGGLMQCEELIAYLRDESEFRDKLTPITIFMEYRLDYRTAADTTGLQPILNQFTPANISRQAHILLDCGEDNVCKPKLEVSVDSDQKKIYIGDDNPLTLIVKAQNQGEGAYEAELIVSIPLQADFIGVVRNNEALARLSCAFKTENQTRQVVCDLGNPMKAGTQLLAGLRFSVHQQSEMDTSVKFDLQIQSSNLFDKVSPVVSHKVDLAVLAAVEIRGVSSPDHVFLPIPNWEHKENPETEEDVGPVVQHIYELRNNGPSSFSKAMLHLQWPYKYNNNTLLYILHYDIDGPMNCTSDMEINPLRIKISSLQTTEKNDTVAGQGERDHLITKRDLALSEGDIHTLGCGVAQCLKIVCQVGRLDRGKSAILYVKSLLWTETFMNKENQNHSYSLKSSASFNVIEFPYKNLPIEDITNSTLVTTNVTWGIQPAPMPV", "sequence (P18564 22-707)": "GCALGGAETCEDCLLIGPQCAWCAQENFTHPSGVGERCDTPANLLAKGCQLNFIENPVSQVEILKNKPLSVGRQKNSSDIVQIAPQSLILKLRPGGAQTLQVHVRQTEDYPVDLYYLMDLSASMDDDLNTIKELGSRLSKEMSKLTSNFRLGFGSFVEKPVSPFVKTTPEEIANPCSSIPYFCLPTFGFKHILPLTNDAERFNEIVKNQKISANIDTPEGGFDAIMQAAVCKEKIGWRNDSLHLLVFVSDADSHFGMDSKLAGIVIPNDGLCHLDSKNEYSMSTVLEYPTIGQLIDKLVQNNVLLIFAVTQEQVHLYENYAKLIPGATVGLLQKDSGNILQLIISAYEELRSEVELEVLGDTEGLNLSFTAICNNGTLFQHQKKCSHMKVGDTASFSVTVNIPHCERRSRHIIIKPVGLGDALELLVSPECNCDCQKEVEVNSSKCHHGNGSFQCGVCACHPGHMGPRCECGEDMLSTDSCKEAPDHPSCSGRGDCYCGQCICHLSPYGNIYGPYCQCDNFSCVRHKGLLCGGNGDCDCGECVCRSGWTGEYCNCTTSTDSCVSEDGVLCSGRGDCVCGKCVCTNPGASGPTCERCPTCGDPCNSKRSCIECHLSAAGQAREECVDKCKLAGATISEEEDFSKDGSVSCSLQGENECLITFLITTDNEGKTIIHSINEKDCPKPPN", "test": "Solid Phase Integrin αvβ6 Binding Assay (Examples B1, B2)", "settings": "TGFβ1 LAP ligand, values given in four ranges, read-out: αvβ6 Inhibition IC50 (nM)-range", "description": "(§1) Microplates were coated with recombinant human integrin αvβ6 (2 μg/mL) in PBS (100 μL/well 25° C., overnight). The coating solution was removed, washed with wash buffer (0.05% Tween 20; 0.5 mM MnCl2; in 1×TBS). The plate was blocked with 200 μL/well of Block Buffer (1% BSA; 5% sucrose; 0.5 mM MnCl2; in 1×TBS) at 37° C. for 2 h. Dilutions of testing compounds and recombinant TGFβ1 LAP (0.67 μg/mL) in binding buffer (0.05% BSA; 2.5% sucrose; 0.5 mM MnCl2; in 1×TBS) were added. The plate was incubated for 2 hours at 25° C., washed, and incubated for 1 hour with Biotin-Anti-hLAP. Bound antibody was detected by peroxidase-conjugated streptavidin. The IC50 values for testing compounds were calculated by four-parameter logistic regression.\nThe compounds tested were compound samples prepared according to procedures described in the Synthetic Examples section, with the stereochemical purity as indicated in the Examples.\nas §1, with “A third series of exemplary compounds was selected for testing in the solid phase integrin αvβ6 binding assay. The compounds tested were compound samples prepared according to procedures described in the Synthetic Examples section, with the stereochemical purity as indicated in the Examples. As in Example B1, microplates were coated” for “Microplates were coated”, “calculated by a four-parameter logistic” for “calculated by four-parameter logistic”", "units": {"IC50": "nM"}, "values": [{"smiles": "COCCN(CCCCc1ccc2c(n1)NCCC2)CC[C@H](Nc1ncnc2cc(F)ccc12)C(=O)O", "note": "[Compound 7, (S)-2-((7-fluoroquinazolin-4-yl)amino)-4-((2-methoxyethyl) (4-(5,6,7,8-tetrahydro-1,8-naphthyridin-2-yl)butyl)amino) butanoic acid]", "IC50": "< 50"}, {"smiles": "O=C(O)[C@H](CCN(CCCCc1ccc2c(n1)NCCC2)C1CC(F)(F)C1)Nc1ncnc2ccccc12", "note": "[Compound 9, (S)-4-((3,3-difluorocyclobutyl) (4-(5,6,7,8-tetrahydro-1,8-naphthyridin-2-yl)butyl)amino)-2-(quinazolin-4-ylamino) butanoic acid]", "IC50": "> 1000"}, {"smiles": "COCCN(CCCCc1ccc2c(n1)NCCC2)CC[C@H](Nc1nc(C)nc2ccccc12)C(=O)O", "note": "[Compound 10, (S)-4-((2-methoxyethyl) (4-(5,6,7,8-tetrahydro-1,8-naphthyridin-2-yl)butyl)amino)-2-((2-methylquinazolin-4-yl)amino) butanoic acid]", "IC50": "< 50"}, {"smiles": "COCCN(CCCCc1ccc2c(n1)NCCC2)CC[C@H](Nc1ncnc2ncccc12)C(=O)O", "note": "[Compound 11, (S)-4-((2-methoxyethyl) (4-(5,6,7,8-tetrahydro-1,8-naphthyridin-2-yl)butyl)amino)-2-(pyrido[2,3-d]pyrimidin-4-ylamino) butanoic acid]", "IC50": "< 50"}, {"smiles": "COCCN(CCCCc1ccc2c(n1)NCCC2)CC[C@H](Nc1nc(C)nc2cc(F)ccc12)C(=O)O", "note": "[Compound 12, (S)-2-((7-fluoro-2-methylquinazolin-4-yl)amino)-4-((2-methoxyethyl) (4-(5,6,7,8-tetrahydro-1,8-naphthyridin-2-yl)butyl)amino) butanoic acid]", "IC50": "< 50"}, {"smiles": "COCCN(CCCCc1ccc2c(n1)NCCC2)CC[C@H](Nc1nc(C(F)(F)F)nc2ccccc12)C(=O)O", "note": "[Compound 14, (S)-4-((2-methoxyethyl) (4-(5,6,7,8-tetrahydro-1,8-naphthyridin-2-yl)butyl)amino)-2-((2-(trifluoromethyl)quinazolin-4-yl)amino) butanoic acid]", "IC50": "< 50"}, {"smiles": "COCCN(CCCCc1ccc2c(n1)NCCC2)CC[C@H](Nc1ncnc2c(C(F)(F)F)cccc12)C(=O)O", "note": "[Compound 15, (S)-4-((2-methoxyethyl) (4-(5,6,7,8-tetrahydro-1,8-naphthyridin-2-yl)butyl)amino)-2-((8-(trifluoromethyl)quinazolin-4-yl)amino) butanoic acid]", "IC50": "< 50"}, {"smiles": "COCCN(CCCCc1ccc2c(n1)NCCC2)CC[C@H](Nc1ncnc2cccnc12)C(=O)O", "note": "[Compound 16, (S)-4-((2-methoxyethyl) (4-(5,6,7,8-tetrahydro-1,8-naphthyridin-2-yl)butyl)amino)-2-(pyrido[3,2-d]pyrimidin-4-ylamino) butanoic acid]", "IC50": "< 50"}, {"smiles": "COCCN(CCCCc1ccc2c(n1)NCCC2)CC[C@H](Nc1ncnc2cnccc12)C(=O)O", "note": "[Compound 17, (S)-4-((2-methoxyethyl) (4-(5,6,7,8-tetrahydro-1,8-naphthyridin-2-yl)butyl)amino)-2-(pyrido[3,4-d]pyrimidin-4-ylamino) butanoic acid]", "IC50": "< 50"}, {"smiles": "COCCN(CCCCc1ccc2c(n1)NCCC2)CC[C@H](Nc1ncnc2cccc(F)c12)C(=O)O", "note": "[Compound 18, (S)-2-((5-fluoroquinazolin-4-yl)amino)-4-((2-methoxyethyl) (4-(5,6,7,8-tetrahydro-1,8-naphthyridin-2-yl)butyl)amino) butanoic acid]", "IC50": "< 50"}, {"smiles": "COCCN(CCCCc1ccc2c(n1)NCCC2)CC[C@H](Nc1ncnc2ccc(F)cc12)C(=O)O", "note": "[Compound 19, (S)-2-((6-fluoroquinazolin-4-yl)amino)-4-((2-methoxyethyl) (4-(5,6,7,8-tetrahydro-1,8-naphthyridin-2-yl)butyl)amino) butanoic acid]", "IC50": "< 50"}, {"smiles": "COCCN(CCCCc1ccc2c(n1)NCCC2)CC[C@H](Nc1ncnc2c(F)cccc12)C(=O)O", "note": "[Compound 20, (S)-2-((8-fluoroquinazolin-4-yl)amino)-4-((2-methoxyethyl) (4-(5,6,7,8-tetrahydro-1,8-naphthyridin-2-yl)butyl)amino) butanoic acid]", "IC50": "< 50"}, {"smiles": "COCCN(CCCCc1ccc2c(n1)NCCC2)CC[C@H](Nc1ncnc2cc(F)c(F)cc12)C(=O)O", "note": "[Compound 21, (S)-2-((6,7-difluoroquinazolin-4-yl)amino)-4-((2-methoxyethyl) (4-(5,6,7,8-tetrahydro-1,8-naphthyridin-2-yl)butyl)amino) butanoic acid]", "IC50": "< 50"}, {"smiles": "COCCN(CCCCc1ccc2c(n1)NCCC2)CC[C@H](Nc1cc(C(F)(F)F)nc(C)n1)C(=O)O", "note": "[Compound 22, (S)-4-((2-methoxyethyl) (4-(5,6,7,8-tetrahydro-1,8-naphthyridin-2-yl)butyl)amino)-2-((2-methyl-6-(trifluoromethyl)pyrimidin-4-yl)amino) butanoic acid]", "IC50": "< 50"}, {"smiles": "COCCN(CCCCc1ccc2c(n1)NCCC2)CC[C@H](Nc1cc(C(F)F)ncn1)C(=O)O", "note": "[Compound 23, (S)-2-((6-(difluoromethyl)pyrimidin-4-yl)amino)-4-((2-methoxyethyl) (4-(5,6,7,8-tetrahydro-1,8-naphthyridin-2-yl)butyl)amino) butanoic acid]", "IC50": "< 50"}, {"smiles": "COCCN(CCCCc1ccc2c(n1)NCCC2)CC[C@H](Nc1ccnc(C(F)(F)F)n1)C(=O)O", "note": "[Compound 24, (S)-4-((2-methoxyethyl) (4-(5,6,7,8-tetrahydro-1,8-naphthyridin-2-yl)butyl)amino)-2-((2-(trifluoromethyl)pyrimidin-4-yl)amino) butanoic acid]", "IC50": "< 50"}, {"smiles": "CO[C@@H](C)CN(CCCCc1ccc2c(n1)NCCC2)CC[C@H](Nc1ncnc2ccccc12)C(=O)O", "note": "[Compound 25, (S)-4-(((S)-2-methoxypropyl) (4-(5,6,7,8-tetrahydro-1,8-naphthyridin-2-yl)butyl)amino)-2-(quinazolin-4-ylamino) butanoic acid]", "IC50": "< 50"}, {"smiles": "COCCN(CCCCc1ccc2c(n1)NCCC2)CC[C@H](Nc1cc(C)nc(C(F)(F)F)n1)C(=O)O", "note": "[Compound 26, (S)-4-((2-methoxyethyl) (4-(5,6,7,8-tetrahydro-1,8-naphthyridin-2-yl)butyl)amino)-2-((6-methyl-2-(trifluoromethyl)pyrimidin-4-yl)amino) butanoic acid]", "IC50": "< 50"}, {"smiles": "CS(=O)(=O)CCN(CCCCc1ccc2c(n1)NCCC2)CC[C@H](Nc1ncnc2ccccc12)C(=O)O", "note": "[Compound 27, (S)-4-((2-(methylsufonyl)ethyl) (4-(5,6,7,8-tetrahydro-1,8-naphthyridin-2-yl)butyl)amino)-2-(quinazolin-4-ylamino) butanoic acid]", "IC50": "< 50"}, {"smiles": "O=C(O)[C@H](CCN(CCCCc1ccc2c(n1)NCCC2)CCOc1ccccc1)Nc1ncnc2ccccc12", "note": "[Compound 28, (S)-4-((2-phenoxyethyl) (4-(5,6,7,8-tetrahydro-1,8-naphthyridin-2-yl)butyl)amino)-2-(quinazolin-4-ylamino) butanoic acid]", "IC50": "< 50"}, {"smiles": "O=C(O)[C@H](CCN(CCCCc1ccc2c(n1)NCCC2)CCC(F)F)Nc1ncnc2ccccc12", "note": "[Compound 29, (S)-4-((3,3-difluoropropyl) (4-(5,6,7,8-tetrahydro-1,8-naphthyridin-2-yl)butyl)amino)-2-(quinazolin-4-ylamino) butanoic acid]", "IC50": "< 50"}]}]}
